The text below walks through data of EP3532040B1, “A PERSONAL CARE COMPOSITION” (Unilever Global IP Limited, priority 2016, dated 2018).

A short description of data set [1]: Color assessment of solutions (L*a*b* color space, Labscan XE, and visual appearance). In kind it is physicochemical. To be noted: 200 µM in ethyl acetate; for b* / L* / a*: 21 °C; for b*: vehicle 1.78; for L*: vehicle 68.79; for a*: vehicle -0.49. Here is the method:
Solutions of compound with formula 1 and curcumin were prepared in ethyl acetate (200 µM) and the L*a*b* color space measured at room temperature (21 °C) using a Labscan XE instrument (Hunter Associates Labs Inc., Reston, VA) and processed with Universal Software (version 4.10). […]

The nature of data set [2]: Visual assessment of color of the compound compared with curcumin. To be noted: color of the compound itself. In kind it is physicochemical. An excerpt:
It is desirable that the color of the novel compound of the present invention lies within the colorless to light yellow range for optimum visual appeal and usage in topical and/or skin care compositions. Visual assessment of color from a solid or solution sample of novel compounds in comparison to a solid or solution sample of curcumin provides a means to determine relative reduction of color and appeal potential. In addition, UV-Vis spectra of solution samples of novel compounds in comparison to a solution sample of curcumin provides a means to measure color experimentally and allows a more direct measurement of color. Thus, using these two simple measurements it is possible to assess the relative reduction in color of novel inventive compounds relative to curcumin and allows prioritization of compounds for further development.

For data set [3], the system named is Primary human gingival fibroblasts. Description: Anti-inflammation efficacy in Human Gingival Fibroblasts assay (P. gingivalis-stimulated IL-6, IL-8, MCP-1 release, ELISA). The data set is classed as cell-based. To be noted: 20 µM active preincubated 2 h, then heat-inactivated P. gingivalis 4 h. Here is the method: Primary human gingival fibroblasts (HGFs, Cat No. 2620, ScienCell™) were cultured in complete fibroblast medium which included 500 mL of basal medium, 10 mL of fetal bovine serum (FBS), 5 mL of fibroblast growth supplement, and 5 mL of penicillin/streptomycin solution (Cat No. 2301, ScienCell™). HGFs were seeded in 24 well-plates at the density of 2 × 10^4 cells / well and cultured for 72 h. Cells were preincubated with active for 2 h. After removal of the active medium, the cells were washed with PBS and further treated with heat-inactivated P. gingivalis (Cat. 33277, ATCC). After 4 h, the supernatants were collected and measured for IL-6, IL-8 and monocyte chemoattractant protein (MCP) -1 as pro-inflammatory bio-markers using ELISA.

The nature of data set [4]: Solubility in solvents compared with curcumin. The data set is classed as physicochemical.
A further data set relates to THP1-XBlue cells. As to the kind of experiment: Anti-inflammation efficacy in THP-1 in vitro assay (LPS-stimulated IL-6 release, ELISA). In kind it is cell-based. To be noted: 24 h, PMA-differentiated cells, LPS alone 10508. Here is the method: THP1-XBlue™ (Cat No: thpx-sp, InvivoGen) cells were cultured as suspense in RPMI 1640 medium supplemented with 10% FBS, penicillin (10 U/mL) - streptomycin (10 µg/ML). Cells were differentiated in 24-well plates at the density of 5 × 10^5 cells / well with 100 nM PMA for 72 h. Cells were then co-treated with pure E. coli lipopolysaccharides (LPS) and with active. After 24 h, the supernatants were collected and measured for interleukin (IL)-6 as pro-inflammatory bio-marker using enzyme-linked immunosorbent assay (ELISA).

For the compound `COc1cc(/C=C/C(=O)CC(=O)/C=C/c2ccc(O)c(OC)c2)ccc1O` [Curcumin, reference compound], in data set [1], the “Appearance (visual appearance of solution)” value is listed as “yellow”, the “b*” value turned out to be 63.88, the “L*” value is on record as 68.53 and the “a*” value is given as -18.66. Also, in data set [2], the color result is given as “orange”.

`COc1cc(C2CC2C(=O)C(C)(C)C(=O)C2CC2c2ccc(O)c(OC)c2)ccc1O` (stereo not shown) [compound of formula 1, 1,3-bis(2-(4-hydroxy-3-methoxyphenyl)cyclopropyl)-2,2-dimethylpropane-1,3-dione]: the “Concentration MCP-1” value in data set [3] (P. gingivalis alone 388) is 232 pg/mL. Besides, the “Concentration IL-6” value in data set [3] (P. gingivalis alone 595) is 286 pg/mL. Further, the “Concentration IL-8” value in data set [3] (P. gingivalis alone 17100) turned out to be 8321 pg/mL. Also, in data set [4], the “solubility in a broad spectrum of solvents” value is on record as “significantly improved solubility”. Also, in data set [1], the “Appearance (visual appearance of solution)” value is on record as “colorless”, the “b*” value worked out at 2.49, the “L*” value was determined as 68.62 and the “a*” value is -0.68. Also, in the data set with THP1-XBlue cells (10 µM active co-treated with E. coli LPS), the “Concentration of IL-6” value came to 5591 pg/mL. In addition, the “Concentration of IL-6” value in the data set with THP1-XBlue cells (20 µM active co-treated with E. coli LPS) was determined as 2996 pg/mL. For the same compound, the color result in data set [2] is listed as “light yellow”.
